Reference: PMC6475383 (Proceedings of the National Academy of Sciences of the …, 2019)

Key:
[1] = test system: KRN/I-Ag7 serum transfer-induced arthritis; assay: KRN arthritis model; format: in vivo, C57BL/6 mice
[2] = test system: PNH erythrocytes; assay: C3-opsonization of PNH erythrocytes; format: cell-based, human; details: acidified serum, 1 µM, flow cytometry
[3] = test system: lectin complement pathway; assay: Wieslab lectin pathway assay in human serum; format: biochemical; details: up to 100 µM
[4] = test system: C3 convertase activity in serum of C3G patients; assay: Inhibition of C3 cleavage in C3G patient serum; format: biochemical; details: patient serum mixed with normal human serum, Mg2+-EGTA
[5] = test system: passive Heymann nephritis; assay: Passive Heymann nephritis; format: in vivo, Sprague-Dawley rats; details: rats
[6] = test system: classical complement pathway; assay: Wieslab classical pathway assay in human serum; format: biochemical; details: up to 100 µM
[7] = test system: AP activation in plasma; assay: LPS-induced AP activation in mice; format: in vivo, C57BL/6J mice; details: 30 mg/kg oral, 3.5 h after i.p. LPS
[8] = test system: sheep erythrocytes; assay: C3G patient serum-induced hemolysis of sheep erythrocytes; format: cell-based; details: 0.15 µM, 20% patient serum, EGTA
[9] = test system: PNH erythrocytes; assay: Ex vivo hemolysis of PNH erythrocytes
[10] = test system: receptors, ion channels, kinases, and proteases; assay: Broad assay panel; details: up to 10 µM
[11] = prophylactic and therapeutic dosing, end of study

- effects in a broad assay panel of receptors, ion channels, kinases, and proteases [10]: no significant effects
Structure (SMILES): CCO[C@H]1CCN(Cc2c(OC)cc(C)c3[nH]ccc23)[C@H](c2ccc(C(=O)O)cc2)C1 [LNP023]
- disease protection ([1]; mice, 60 mg/kg b.i.d. oral): Full disease protection
- disease protection ([1]; mice, 180 mg/kg b.i.d. oral): Full disease protection
- overall clinical score ([1]; mice, 20, 60, and 180 mg/kg b.i.d. oral): highly efficacious
- complement activation in the joints (Ba, C3d, C5a) ([1]; mice, all doses (20, 60, 180 mg/kg b.i.d.)): significantly inhibited complement activation
- joint histology: inflammatory cell infiltration, bone erosion, proteoglycan loss ([1]; mice, all treated animals, after 6 d of treatment): strongly blocked
- C3 deposition on the surface of CD59-negative erythrocytes [2]: able to block C3 deposition
- inhibition of lectin complement pathway activation [3]: no inhibition
- C3 cleavage in C3G patient sera [4]: blocked abnormal C3 cleavage
- glomerular C3 deposition ([5]; after compound treatment): near-complete inhibition of complement activation
- glomerulopathy [5, 11]: greatly attenuate
- overall histopathology score [5, 11]: significantly improve
- tubular degeneration [5, 11]: prevent tubular degeneration
- disease progression after onset of proteinuria ([5]; therapeutic dosing from day 6): immediately halted further disease progression
- inhibition of classical complement pathway activation [6]: no inhibition
- complement activation in plasma (C3d/iC3b) after LPS [7]: effectively blocked complement activation
- C3G serum-induced hemolysis of sheep erythrocytes [8]: potently blocked hemolysis
- IC50 ([9]; Homo sapiens, Erythrocyte, 24 h, read-out: IC50 lysis of PNH erythrocytes): 400 nM
- extent of inhibition of hemolysis of PNH erythrocytes ([9]; dose-response, acidified NHS, FACS): full inhibition
